What was measured:
[1] = test system: passive cutaneous anaphylaxis (PCA); assay: Passive cutaneous anaphylaxis assay (PCA) in rats; type: in vivo, rat (Wister strain); conditions: Rattus norvegicus, po, 1 h, oral 10 mg/kg, one hour before antigen, read-out: PCA Inhibition Ratio %
Experimental: (§1) The effect of the compounds (I) of the present invention in the treatment of asthma and allergic diseases were evaluated by a passive cutaneous anaphylaxis assay (PCA) in rats and by measuring anti-SRS-A action using ileus of guinea pigs.
(i) Antiserum abundant in homocytotropic antibody is prepared by the same method as Tada and Okumura did (cf. Journal of Immunology, volume 106, page 1002, […]). Thus, one mg (calculated as an amount of protein) of DNP-As (2,4-dinitrophenyl-coupled ascaris extract) prepared by methods of Strejan and Campbell (Journal of Immunology, volume 98, page 893, 1971) and of Eisen (Journal of American Chemical Society, volume 85, page 4593, 1953) and […] pertussis vaccine are administered to each paw of Wister strain rats (180 to 200 grams body weights) by dividing the dose by four. Five days later, 0.5 mg of DNP-As is adminstered into muscle of back. Eight days later from the initial immunization, blood is taken from descending aorta under anesthetizing with ether, the resulting serum is stored at -80° C. and is melted before use.
(ii) Effect of tested compounds is investigated as follows:
Anti-serum obtained by the method (i) is diluted with physiological saline solution double by double successively and 0.05 ml of each diluted solution is administered into back of Wister strain rats (140 to 160 grams body weight) subcutaneously. After 72 hours, a solution of 2 mg (calculated as protein) of DNP-As and 2.5 mg of Evand Blue dissolved in 1 ml of physiological saline solution is administered intravenously at a dose of 5 ml/kg. After thirty minutes from antigen solution administration, the animals are killed and diameters of blue spots appeared at the place where antiserum is administered are measured. The PCA test is conducted by the same method as already described using a diluted solutions of antiserum which always show 10 mm or more of spot diameters and the effect of the test compounds is judged. Thus, antiserum diluted solutions are administered to two places in back. Test compounds are administered orally at the dose of 10 mg/kg one hour before administration of antigen solution. From the skin of reacted parts of killed animals, leaked or emitted dyestuff is extracted [cf. Baeck and Steinetz: J. Pharmacol. Exp. Ther., Vol. 131, page 400 (1961)] and the amount of the dyestuff is measured. The inhibition ratio is calculated by the following expression: [formula] in which R' is an amount of dyestuff in the group treated with the test compounds and A is that in the control group.

SRS-A = assay: Anti-SRS-A action (SRS-A induced shrinkage of guinea pig ileus); set-up: species or system guinea pig (Hartley strain male); conditions: treated five minutes before SRS-A (20 units), 5 min; for SRS-A Inhibition Ratio % 10^-6 M: 1 µM; for SRS-A Inhibition Ratio % 10^-7 M: 0.1 µM
Experimental: as §1
Anti-SRS-A action (An anti-action against slow reacting substance of anaphylaxie)
Hartley strain male guinea pigs (300 to 350 grams body weight) are killed and 1.0 to 1.5 cm of ileus is immediately excised from ileocecal parts and is suspended in 10 ml of Tyrode solution (95% O2 -5% CO2 saturation) containing 10^-7 g/ml of atropine and 10^-6 g/ml of pyrilamine. SRS-A (20 units) (the amount of SRS-A showing the same shrinkage as 5 ng of histamine is defined as one unit) prepared by using sensitized guinea pig lung is given to cause shrinkage there. Then antagonistic action of test compounds treated five minutes ago against the shrinkage is measured and recorded via isotonic transducer. [formula] in which A' is a height of shrinkage of SRS-A + test compound and A is that of SRS-A.

Row | SMILES | inhibition in vivo at 10 mg/kg [1] [%] | SRS-A Inhibition Ratio % 10^-6 M (SRS-A) [%] | SRS-A Inhibition Ratio % 10^-7 M (SRS-A) [%]
1 | CCNC(=O)c1cccc2c(=O)c(C)c(-c3ccc(C(C)C)cc3)oc12 [Example 51, 4'-isopropyl-3-methylflavone-8-carboxylic acid N-ethylamide] | 19 | 75.0 | 17.5
2 | CCNC(=O)c1cccc2c(=O)c(C)c(-c3ccc(Cl)cc3)oc12 [Example 73, 4'-chloro-3-methylflavone-8-carboxylic acid N-ethylamide] | 19.4 | 29.4 | 6.2
3 | CCCCN(CC)C(=O)c1cccc2c(=O)c(C)c(-c3ccc(C)cc3C)oc12 [Example 43, 2',3,4'-trimethylflavone-8-carboxylic acid N-n-butyl-N-ethylamide] | 18.8 | 68.1 | 23.4
4 | COC(=O)c1cccc2c(=O)c(C)c(-c3ccccc3)oc12 [Example 8, Methyl 3-methylflavone-8-carboxylate] | 17.4 | 64.9 | 45.0
5 | CCOC(=O)c1cccc2c(=O)c(C)c(-c3ccc(C)cc3C)oc12 [Example 40, ethyl 2',3,4'-trimethylflavone-8-carboxylate] | 17.3 | 73.9 | 8.1
6 | CCOc1ccccc1-c1oc2c(C(=O)O)cccc2c(=O)c1C [Example 16, 2'-ethoxy-3-methylflavone-8-carboxylic acid] | 18.6 | 14.8 | 10.4
7 | CCOC(=O)c1cccc2c(=O)c(C)c(-c3ccccc3Cl)oc12 [Example 67, ethyl 2'-chloro-3-methylflavone-8-carboxylate] | 19.8 | 100 | 42.9
8 | Cc1c(-c2ccc(C(C)C)cc2)oc2c(C(=O)O)cccc2c1=O [Example 7, 4'-Isopropyl-3-methylflavone-8-carboxylic acid] | 19.7 | 40.8 | 19.0
9 | CCN(CC)C(=O)c1cccc2c(=O)c(C)c(-c3ccccc3OC(C)C)oc12 [Example 22, 2'-isopropoxy-3-methylflavone-8-carboxylic acid N,N-diethylamide] | 16.1 | 66.7 | 40.0
10 | CCCCN(CCCC)C(=O)c1cccc2c(=O)c(C)c(-c3ccc(C(C)C)cc3)oc12 [Example 49, 4'-isopropyl-3-methylflavone-8-carboxylic acid N,N-di-n-butylamide] | 20 | 82.8 | 55.6
11 | CCN(CC)C(=O)c1cccc2c(=O)c(C)c(-c3ccc(C(C)(C)C)cc3)oc12 [Example 57, 4'-tertiary butyl-3-methylflavone-8-carboxylic acid N,N-diethylamide] | 19.1 | 39.1 | 10.4
12 | CCOC(=O)c1cccc2c(=O)c(C)c(-c3cccc(OC)c3OC)oc12 [Example 24, ethyl 2'.3'-dimethoxy-3-methylflavone-8-carboxylate] | 20.4 | 100 | 18.2
13 | CCOC(=O)c1cccc2c(=O)c(C)c(-c3ccc(Cl)cc3Cl)oc12 [Example 80, ethyl 2',4'-dichloro-3-methylflavone-8-carboxylate] | 21.3 | 61.7 | 17.6
14 | Cc1c(-c2ccccc2Cl)oc2c(C(=O)OCCO)cccc2c1=O [Example 69, beta-hydroxyethyl 2'-chloro-3-methylflavone-8-carboxylate] | 14.3 | 55.3 | 9.8
15 | Cc1c(-c2ccc(C(C)C)cc2)oc2c(C(=O)NC3CCCCC3)cccc2c1=O [Example 53, 4'-isopropyl-3-methylflavone-8-carboxylic acid N-cyclohexylamide] | 10.3 | 51.9 | 40.0
16 | CCN(CC)C(=O)c1cccc2c(=O)c(C)c(-c3ccc(Cl)cc3)oc12 [Example 72, 4'-chloro-3-methylflavone-8-carboxylic acid N,N-diethylamide] | 16.3 | 42.1 | 7.5
17 | CCCCCCNC(=O)c1cccc2c(=O)c(C)c(-c3ccc(C(C)C)cc3)oc12 [Example 52, 4'-isopropyl-3-methylflavone-8-carboxylic acid N-n-hexylamide] | 13.5 | 66.1 | 20.7
18 | Cc1ccc(-c2oc3c(C(=O)OCCO)cccc3c(=O)c2C)c(C)c1 [Example 42, beta-hydroxyethyl 2'.3.4'-trimethylflavone-8-carboxylate] | 19.8 | 27.6 | 10.3
19 | CCN(CC)C(=O)c1cccc2c(=O)c(C)c(-c3ccccc3)oc12 [Example 9, 3-methylflavone-8-carboxylic acid N,N-diethylamide] | 21.9 | 64.7 | 50.7
20 | CCCCN(CC)C(=O)c1cccc2c(=O)c(C)c(-c3ccc(C(C)C)cc3)oc12 [Example 50, 4'-isopropyl-3-methylflavone-8-carboxylic acid N-n-butyl-N-ethylamide] | 21.4 | 100 | 70.0
21 | Cc1c(-c2ccc(C(C)C)cc2)oc2c(C(=O)N3CCCCC3)cccc2c1=O [Example 54, 4'-isopropyl-3-methylflavone-8-carboxylic acid N,N-pentamethylene amide] | 13 | 69.0 | 38.6
22 | CCCCCc1ccc(-c2oc3c(C(=O)N(CC)CC)cccc3c(=O)c2C)cc1 [Example 60, 3-methyl-4'-n-pentylflavone-8-carboxylic acid N,N-diethylamide] | 13.4 | 100 | 44.9
23 | CCN(CC)C(=O)c1cccc2c(=O)c(C)c(-c3ccc(OC)cc3OC)oc12 [Example 28, 2',4'-dimethoxy-3-methylflavone-8-carboxylic acid N,N-diethylamide] | 20.1 | 63.2 | 23.0
24 | CCc1ccccc1-c1oc2c(C(=O)N(CC)CC)cccc2c(=O)c1C [Example 38, 2'-ethyl-3-methylflavone-8-carboxylic acid N,N-diethylamide] | 16 | 100 | 29.6
25 | CCOC(=O)c1cccc2c(=O)c(C)c(-c3ccc(CC)cc3)oc12 [Example 45, ethyl 4'-ethyl-3-methylflavone-8-carboxylate] | 19 | 52.2 | 16.0
26 | COc1cccc(-c2oc3c(C(=O)O)cccc3c(=O)c2C)c1OC [Example 23, 2',3'-dimethoxy-3-methylflavone-8-carboxylic acid] | 19.5 | 24.0 | 6.2
